In assay [1] the test system is HER2/ErbB2 amplified cell line N87. Nature of the assay: In vivo tumor growth inhibition, xenograft. On the set-up: species or system Bab/c nude mice. To be noted: Mus musculus, po, 456 h, 25 mg/kg intragastric once daily, day 19, read-out: TGI (%). From the text:
(§1) Tumor xenograft models of immunodeficient mice are an effective tool to test the antitumor activity of the compound in vivo. Generally, the effectiveness of human tumor cell xenograft is positively correlated with the clinical treatment of human tumor. Bab/c immunodeficient mouse is one of the most commonly used xenograft animals with human tumor cells. In order to test whether the present compounds can inhibit the in vivo growth of the tumor cells expressing EGFR mutantion or HER2/ErbB2 overexpression, H1975, PC-9 and NCI-N87 cell lines were used in the experiments. When H1975, PC-9 and NCI-N87 cells were in growth logarithmic phase, they were digested with pancreatin. An appropriate amount of 1×RPMI1640 culture medium (serum-free) was added to stop digestion. The cells were collected to a 50 ml centrifuge tube (Corning), and centrifuged at 1700 rm for 3 min. The supernatant was discard, then the cells were suspended with 1×RPMI1640 culture medium and count the number. […] cells/mL was prepared and then placed on ice. 5˜10×10^6 (0.2 ml) cells were inoculated subcutaneously on the right side of the back of 6˜8 week old female Bab/c nude mice (about 20 g in weight). When the tumor average volume growed to 100˜200 mm^3, the mice were randomly divide into groups (3-6 mice per group), and marked by ear pierced tags and weighted. The test compounds and the reference compound (with a purity over 99% and individual impurity not higher than 0.2%) were formulated to emulsion suspension with CM (30% polyethylene glycol 400, 0.5% Tween-80 and 2.5% propylene glycol) respectively. Intragastric administration was continued once daily at a dosage of 25 mg/kg (0.1 ml/10 g mouse). The tumor was measured 3 times per week. When the average volume of the tumor in CM control group was up to 1500 mm^3 or after administration for 30 days, the experiment was ended.
(§2) The volume of tumor (V) was calculated as V=½*a*b^2 (a represents length of tumors, b represents width of tumors). Tumor growth inhibition (TGI) was calculated as: TGI (%)=100−(VT−VT0)/(VC−VC0)*100%; where VT0 and VT are the tumor volumes of the beginning and finish days of dosed groups; and VC0 and VC are the tumor volumes of the beginning and finish days for the control group, respectively.

The next assay relates to PC-9 tumor cells. Description: In vivo tumor growth inhibition, xenograft. On the set-up: species or system Bab/c nude mice. To be noted: Mus musculus, po, 456 h; 25 mg/kg intragastric once daily, day 19; read-out: TGI (%) PC-9.
Text: as §1, §2

For the next assay, the system named is H1975 tumor cells. Description: In vivo tumor growth inhibition, xenograft. On the set-up: species or system Bab/c nude mice. The settings on record: Mus musculus, NCI-H1975, po, 456 h; 25 mg/kg intragastric once daily, day 19; read-out: TGI (%) H1975.
Text: as §1, §2

The test system of a further assay is HEL (Jak2 V167F). Description: Growth inhibition GI50 in vitro (CCK8/MTT, 72 h). In kind it is cell-based. The settings on record: Homo sapiens; HEL, Jak2 V167F; read-out: GI50. Here is the method: Jak2 is a kind of non-receptor PTK (Janus Kinase 2) with great significance in cell growth, differentiation and transformation. Jak2 gene mutation often leads to bone marrow hyperplasia and transformation. Especially Jak2 V167F mutation is common for clinical patients. Human erythroleukemia cell line HEL expressing Jak2 V167F was cultured with 1×RPMI1640 complete medium (supplement with 10% FBS).
(§3) The suspension cells were collected by centrifugation. The supernatant was discard and the cell pellet was resuspended and counted. Different cell concentrations (5˜10×10^4 cells/mL) were prepared according to the growth cycle of each cell line and then seeded on a 96-well plate (Corning), 100 μL/well. The cells were incubated over night at 37° C., 5% CO2. The compounds were added to the cells on the second day with 2 wells in parallel. The final concentration of organic solvent shall not exceed 1%. The cells were continually incubated for 72 h, and then subjected to MTT assay.
(§4) The present compounds and the reference compounds were dissolved with DMSO (Sigma), respectively. […] The storage concentration of compounds was 10 mM and kept at −20° C. They were diluted by 2 times or 10 times with serial dilution before using.
(§5) Dojindo CCK8 reagent kit was used as MTT assay. […] FC meter was used as microplate reader.
(§6) Adherent cell culture medium was discard and immediately replaced with fresh prepared medium which contains 10% CCK8 reagent (100 μL/well). For the suspension cells, CCK8 was directly added to 10% of the final concentration. The cells were continually incubated for 1˜4 h. When the color of control wells turned to dark yellow, the absorption value was measured at OD450 nm. The cell growth rate was calculated according to the following formula: cell growth rate (%)=100*(T−T0)/(C−T0), T=optical density of drug treatment cell well—optical density of blank control well; T0=optical density of cell well before drug treatment—optical density of blank control well; C=optical density of cell well of solvent control group—optical density of blank control well. […] The experiment was independently repeated 1˜3 times, and subject to biological statistical analysis.
(§7) Growth inhibition assay was conducted in the cell lines shown Table 14 with the different oncogene mutations. Each compound started at 1000 nM as an initial concentration and was diluted by 2 times with serial dilution to 0.03 nM.

For assay [2], the system named is A375 (EGFR wt, BRAF V600E). Description: Growth inhibition GI50 in vitro (CCK8/MTT, 72 h). To be noted: Homo sapiens, A-375; A375, EGFR wt, BRAF V600E; read-out: GI50. In kind it is cell-based.
Text: EGFR wild type cell lines: human epidermal cancer cell line A431 (EGFR WT, amplification and high expression, from Shanghai Cell Bank of Chinese Academy of Sciences and ATCC), NSCLC cell lines NCI-H460 (EGFR WT, Kras G61H and PI3KCA E545K mutants, ATCC) and NCI-H1299 (EGFR WT, ATCC), melanoma cell line A375 (EGFR WT and BRAF V600E mutant, from Shanghai Cell Bank of Chinese Academy of Sciences, ATCC), human lung cancer cell line NCI-H292 (EGFR WT, from human lung mucoepidermoid carcinoma/lymphatic metastasis, purchased from Shanghai Cell Bank of Chinese Academy of Sciences) were cultured with 1×RPMI1640 complete medium which was supplement with 10% FBS. NSCLC cell line A549 (EGFR WT and Kras G12S mutant, from Shanghai Cell Bank of Chinese Academy of Sciences) was cultured with 1×Ham'S F12K complete medium which was supplement with 10% FBS, 1% double-antibiotics and 2 mM glutamine.
as §3, §4, §5, §6, §7

The test system of the next assay is Karpas-299 (NPM-ALK). Nature of the assay: Growth inhibition GI50 in vitro (CCK8/MTT, 72 h). The settings on record: Homo sapiens, Karpas-299, EGFR wt. In kind it is cell-based.
The subject of another assay is Kasumi-1 (Kit N822K). Description: Growth inhibition GI50 in vitro (CCK8/MTT, 72 h). In kind it is cell-based. To be noted: Homo sapiens. Here is the method: Kasumi-1 is a leukemia cell line positively expressing c-Kit N822K mutant Abnormal variation of c-Kit often appears in cancer patients. Kasumi-1 cell line was cultured with 1×RPMI1640 complete medium (supplement with 10% FBS).
as §3, §4, §5, §6, §7

In general, GI50 refers to the concentration that inhibits growth by half.

SMILES strings stand for the structures.

Turning to `C=CC(=O)Nc1cc(Nc2nccc(-n3ccc4c(OC)cccc43)n2)c(OC)cc1N(C)CCN(C)C` [Compound 99, N-(5-(4-(4-methoxyl-1H-indol-1-yl)-pyrimidin-2-ylamino)-2-(2-(dimethylamino-ethyl)-methyl-amino)-4-methoxyl-phenyl)-acrylamide], the inhibition in vivo at 25 mg/kg in assay [1] was 95.4%; in the assay with PC-9 tumor cells, 95.8%; in the assay on H1975 tumor cells, 94.6%.

As for `C=CC(=O)Nc1cc(Nc2cc(-c3cn(C(C)C)c4ccc(F)cc34)ncn2)c(OC)cc1N(C)CCN(C)C` [Compound 191, N-(5-(6-(5-fluoro-1-isopropyl-1H-indol-3-yl)-pyrimidin-4-ylamino)-4-methoxyl-2-((2-dimethylamino-ethyl)-methyl-amino)-phenyl)-acrylamide], the inhibition in vivo at 25 mg/kg in assay [1] amounted to 96.6%; in the assay with PC-9 tumor cells, 98.8%; with H1975 tumor cells, 99.3%.

Take `C=CC(=O)Nc1cc(Nc2cc(-c3cn(C(C)C)c4ccccc34)ncn2)c(OC)cc1N(C)CCN(C)C` [Compound 183]: the GI50 (in the assay with HEL (Jak2 V167F); in assay [2]; in the assay with Karpas-299 (NPM-ALK); in the assay on Kasumi-1 (Kit N822K)) was greater than 1000 nM in each case. The inhibition in vivo at 25 mg/kg in assay [1] was determined as 97.7%; in the assay with PC-9 tumor cells, 98.8%; in the assay on H1975 tumor cells it was 97.4%.

Turning to `C=CC(=O)Nc1cc(Nc2ncnc(Nc3cccc(Br)c3)n2)c(OC)cc1N(C)CCN(C)C` [Compound 115, N-(5-(4-(3-bromo-phenylamino)-[1,3,5]triazin-2-ylamino)-2-((2-dimethylamino-ethyl)-methyl-amino)-4-methoxyl-phenyl)-acrylamide], the inhibition in vivo at 25 mg/kg in assay [1] was determined as 97.8%; in the assay with PC-9 tumor cells, 97.1%; in the assay with H1975 tumor cells, 59.1%.

For the compound `C=CC(=O)Nc1cc(Nc2nccc(-n3ccc4ccc(F)cc43)n2)c(OC)cc1N(C)CCN(C)C` [Compound 63, N-(5-(4-(6-fluoro-1H-indol-1-yl)-pyrimidin-2-ylamino)-2-((2-(dimethylamino)ethyl)-methyl-amino)-4-methoxyl-phenyl)-acrylamide], the inhibition in vivo at 25 mg/kg in assay [1] turned out to be 94.7%; in the assay on PC-9 tumor cells, 98.3%; in the assay on H1975 tumor cells, 98.3%.

Source of the values: patent US10342796B2, “Acrylanilide derivative, preparation method, and applications thereof in pharmacy” (Ancureall Pharmaceutical (Shanghai) Co., Ltd., priority 2015, dated 2019).
